Measurements from PMC8150775, “Repositioning Azelnidipine as a Dual Inhibitor Targeting CD47/SIRPα and TIGIT/PVR Pathways for Cancer Immuno-Therapy” (Biomolecules, 2021).

Assays:
B16-OVA cells = assay: Phagocytosis assay, BMDM co-cultured with GFP+ B16-OVA cells; assay type: cell-based, mouse; conditions: 20 μM, 4 h
Experimental: Bone marrow-derived macrophage (BMDM) cells were isolated from C57BL/6 or BALB/c mice and induced with 20 ng/mL of GM-CSF (Peprotech, Rocky Hill, CT, USA) for 7 days. Meanwhile, the medium was replaced with fresh medium containing the cytokine and the adherent cells were harvested. Phagocytosis assays were performed by a co-culture of the BMDM macrophages with carboxyfluorescein succinimidyl ester-labeled (CFSE^+) or GFP^+ tumor cells at a ratio of 1:4 in a serum-free medium at 37 °C for 4 h, in low-attachment 96-well tissue culture plates (Corning, New York, NY, USA). The cells were harvested and the macrophages were identified by a flow cytometry using anti-F4/80 antibody (eBioscience, San Diego, CA, USA). Then, 7-AAD (eBioscience) was used to exclude the dead cells. The effects of azelnidipine (20 μM) on phagocytosis by BMDM cells were tested, and the anti-CD47 antibody (clone: miap301) were used as the positive control. Phagocytosis rate was determined with the formulation: F4/80^+GFP^+ or F4/80^+CFSE^+ cells/ Total F4/80^+ cells.
Figure 4 Azelnidipine enhances macrophage mediated phagocytosis of the tumor cells. The effects of the azelnidipine on the phagocytosis of the macrophages were tested by a co-culture of the tumor cells and BMDM cell derived from C57BL/6 or BALB/c mice. […] GFP^+ or CFSE^+ BMDMs were detected by a flow cytometry. […]

various tumor cells = system: various tumor cells; design: method as in earlier work; conditions: cited from earlier work

In the case of CC1=C(C(=O)OC(C)C)C(c2cccc([N+](=O)[O-])c2)C(C(=O)OC2CN(C(c3ccccc3)c3ccccc3)C2)=C(N)N1 (centres unmarked) [Azelnidipine], the “phagocytosis of B16-OVA cells by BMDM cells” value (B16-OVA cells) is given as “significantly enhance” and the “growth of various tumor cells in vitro” value (various tumor cells) is given as “inhibit the growth of various tumor cells in vitro”.
